# Data published in patent US20240309015A1, “Methods for the Treatment of Fibrotic Disease” (SHY Therapeutics, LLC, priority 2021, published 2024).
# Columns and labels:
# MAPK p38 = MAPK p38 Activation Assay in PANC-1; assay type: cell-based, human; set-up: key: Y = yes; N = No; conditions: at 10 μM
# Protocol: Cell lines: Human tumor-derived pancreatic cancer cell line Panc-1 and mouse muscle myoblast C2C12 were purchased from American Type Culture Collection and grown in complete DMEM-High Glucose, supplemented with penicillin (100 U/mL), streptomycin (100 μg/mL), and 10% heat-inactivated FBS at 37° C. in a humidified incubator with 5% C02.
# Method: Cells were plated at 350000 cells/well density in a 12-well plate, allowed 3 hours to adhere to the plate, then starved in the appropriate medium in the presence of 0.5% FBS overnight. The small molecules to be tested were added to the cells in the final concentration of 10 μM in the presence of 0.3% DMSO for 3 hours incubation at 37° C. For IC50 value determination, serial dilutions of compounds were added to cells under the same conditions. […] Protein concentration was assessed by BCA protein assay (Thermo Scientific). Phosphorylation level of MAPK p38 was determined by western blot.
# Western blot protocol: Equal amounts of protein (15-50 μg) were separated by SDS-PAGE and transferred to nitrocellulose membranes (Invitrogen by Thermo Fisher Scientific). […] Membranes were blocked with 10% milk and phosphorylation levels of Smad2/Smad3 were assessed by incubating overnight at 4° C. with the following antibody: Phospho-p38 MAPK (Thr180/Tyr182), from Cell Signaling Technology. […]
# KRas G12D mutant = assay: Ras GTP Binding Domain Inhibition Assay, KRas G12D mutant; conditions: at 20 μM; for KRas G12D mutant + SOS: % inh.: with SOS; for KRas G12D mutant: % inh.: without SOS
# Method in brief: (§1)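 His-tagged GTPases, 10-30 μg/mL in Tris-HCl buffer (pH 7.4 or 7.0, MgCl2, DTT), were immobilised on nickel-coated wells overnight at 4° C. Compounds were added at 20 μM or as serial dilutions for IC50 in 1% DMSO for 3 h at room temperature, ±Sos(556-1049) in the final hour. Bound Cy3/Cy5-GTP (100 nM, 45 min) was read after washing.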
# Rho-A = assay: Ras GTP Binding Domain Inhibition Assay, Rho-A; conditions: at 20 μM
# Method in brief: as §1
structure (smiles),measurement,setting,value
"CO[C@H]1CC[C@@H](Nc2nc(-c3nccn3C)nc3sc(-c4ccn(C)n4)c(-c4ccccc4)c23)C1 (racemic) [Compound 5, rac-N-((1R,3S)-3-Methoxycyclopentyl)-2-(1-methyl-1H-imidazol-2-yl)-6-(1-methyl-1H-pyrazol-3-yl)-5-phenylthieno[2,3-d]pyrimidin-4-amine]",Activation of MAPK p38 in PANC-1,MAPK p38,Y
same,KRas G12D mutant + SOS: % inh.,KRas G12D mutant; Table 7,C (C = 46-75% inhibition)
same,KRas G12D mutant + SOS: % inh.,KRas G12D mutant; Table 8,C (C = 46-75% inhibition)
same,KRas G12D mutant: % inh.,KRas G12D mutant; Table 7,A (A = 1-25% inhibition)
same,KRas G12D mutant: % inh.,KRas G12D mutant; Table 8,A (A = 1-25% inhibition)
same,Rho-A + SOS: % inh.,Rho-A; with SOS,D (D = 76-100% inhibition)
same,Rho-A: % inh.,Rho-A; without SOS,C (C = 46-75% inhibition)
